Reference: ChEMBL document CHEMBL5257023, “Identification of leads for antiproliferative activity on MDA-MB-435 human breast cancer cells through pharmacophore and CYP1A1-mediated metabolism” (Eur J Med Chem, 2016)

How the values were obtained:
MDA-MB-468 [1] = test: Anticancer activity against human MDA-MB-468 cells assessed as inhibition of cell growth incubated for 48 hrs by SRB assay; format: functional; settings: for CC50: read-out: LC50 (the source's name)
MCF7 [2] = test: Anticancer activity against human MCF7 cells assessed as inhibition of cell growth incubated for 48 hrs by SRB assay; format: functional; settings: for CC50: read-out: LC50 (the source's name)
MDA-MB-435 [3] = test: Anticancer activity against human MDA-MB-435 cells assessed as inhibition of cell growth incubated for 48 hrs by SRB assay; format: functional
NCI-H226 [4] = test: Anticancer activity against human NCI-H226 cells assessed as inhibition of cell growth incubated for 48 hrs by SRB assay; format: functional
MDA-MB-468 [5] = test: Anticancer activity against human MDA-MB-468 cells assessed as cell growth at 0.1 uM incubated for 48 hrs by SRB assay; format: functional; settings: read-out: Activity
MDA-MB-468 [6] = test: Anticancer activity against human MDA-MB-468 cells assessed as cell growth at 1 uM incubated for 48 hrs by SRB assay; format: functional; settings: read-out: Activity
MDA-MB-468 [7] = test: Anticancer activity against human MDA-MB-468 cells assessed as cell growth at 10 uM incubated for 48 hrs by SRB assay; format: functional; settings: read-out: Activity
MDA-MB-468 [8] = test: Anticancer activity against human MDA-MB-468 cells assessed as cell growth at 100 uM incubated for 48 hrs by SRB assay; format: functional; settings: read-out: Activity
MCF7 [9] = test: Anticancer activity against human MCF7 cells assessed as cell growth at 0.1 uM incubated for 48 hrs by SRB assay; format: functional; settings: read-out: Activity
MCF7 [10] = test: Anticancer activity against human MCF7 cells assessed as cell growth at 1 uM incubated for 48 hrs by SRB assay; format: functional; settings: read-out: Activity
MCF7 [11] = test: Anticancer activity against human MCF7 cells assessed as cell growth at 10 uM incubated for 48 hrs by SRB assay; format: functional; settings: read-out: Activity
MCF7 [12] = test: Anticancer activity against human MCF7 cells assessed as cell growth at 100 uM incubated for 48 hrs by SRB assay; format: functional; settings: read-out: Activity
NCI-H226 [13] = test: Anticancer activity against human NCI-H226 cells assessed as cell growth at 0.1 uM incubated for 48 hrs by SRB assay; format: functional; settings: read-out: Activity
NCI-H226 [14] = test: Anticancer activity against human NCI-H226 cells assessed as cell growth at 1 uM incubated for 48 hrs by SRB assay; format: functional; settings: read-out: Activity
NCI-H226 [15] = test: Anticancer activity against human NCI-H226 cells assessed as cell growth at 10 uM incubated for 48 hrs by SRB assay; format: functional; settings: read-out: Activity
NCI-H226 [16] = test: Anticancer activity against human NCI-H226 cells assessed as cell growth at 100 uM incubated for 48 hrs by SRB assay; format: functional; settings: read-out: Activity
MDA-MB-435 [17] = test: Anticancer activity against human MDA-MB-435 cells assessed as cell growth at 0.1 uM incubated for 48 hrs by SRB assay; format: functional; settings: read-out: Activity
MDA-MB-435 [18] = test: Anticancer activity against human MDA-MB-435 cells assessed as cell growth at 1 uM incubated for 48 hrs by SRB assay; format: functional; settings: read-out: Activity
MDA-MB-435 [19] = test: Anticancer activity against human MDA-MB-435 cells assessed as cell growth at 10 uM incubated for 48 hrs by SRB assay; format: functional; settings: read-out: Activity
MDA-MB-435 [20] = test: Anticancer activity against human MDA-MB-435 cells assessed as cell growth at 100 uM incubated for 48 hrs by SRB assay; format: functional; settings: read-out: Activity
CYP1A1 [21] = target: T1, CYP1A1 (Homo sapiens, UniProt P04798); test: Inhibition of recombinant CYP1A1 (unknown origin) assessed as residual enzyme activity using 7-ethoxyresorufin as substrate at 0.01 uM incubated for 15 mins by resorufin dye based spectrofluorimetry (reference value: 100%); format: ADME; settings: recombinant CYP1A1, probe 7-ethoxyresorufin, read-out: Activity
T1 sequence (P04798 whole entry): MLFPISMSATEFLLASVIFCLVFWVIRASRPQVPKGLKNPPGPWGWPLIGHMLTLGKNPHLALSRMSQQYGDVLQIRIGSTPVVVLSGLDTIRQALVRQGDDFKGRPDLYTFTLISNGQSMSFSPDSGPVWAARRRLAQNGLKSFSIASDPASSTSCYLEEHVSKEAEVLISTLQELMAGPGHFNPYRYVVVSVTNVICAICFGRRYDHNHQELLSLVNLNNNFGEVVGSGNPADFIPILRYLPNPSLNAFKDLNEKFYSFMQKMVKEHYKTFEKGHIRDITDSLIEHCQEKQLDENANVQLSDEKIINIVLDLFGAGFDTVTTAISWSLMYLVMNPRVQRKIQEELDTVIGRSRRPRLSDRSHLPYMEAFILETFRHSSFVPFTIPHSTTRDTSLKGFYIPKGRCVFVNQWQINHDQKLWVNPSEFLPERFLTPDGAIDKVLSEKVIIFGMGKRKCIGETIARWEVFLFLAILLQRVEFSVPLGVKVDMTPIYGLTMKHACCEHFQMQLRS

CYP1A1 [22] = target: T1, CYP1A1; test: Inhibition of recombinant CYP1A1 (unknown origin) assessed as residual enzyme activity using 7-ethoxyresorufin as substrate at 0.1 uM incubated for 15 mins by resorufin dye based spectrofluorimetry (reference value: 100%); format: ADME; settings: recombinant CYP1A1, probe 7-ethoxyresorufin, read-out: Activity
CYP1A1 [23] = target: T1, CYP1A1; test: Inhibition of recombinant CYP1A1 (unknown origin) assessed as residual enzyme activity using 7-ethoxyresorufin as substrate at 1 uM incubated for 15 mins by resorufin dye based spectrofluorimetry (reference value: 100%); format: ADME; settings: recombinant CYP1A1, probe 7-ethoxyresorufin, read-out: Activity
CYP1A1 [24] = target: T1, CYP1A1; test: Inhibition of recombinant CYP1A1 (unknown origin) assessed as residual enzyme activity using 7-ethoxyresorufin as substrate at 10 uM incubated for 15 mins by resorufin dye based spectrofluorimetry (reference value: 100%); format: ADME; settings: recombinant CYP1A1, probe 7-ethoxyresorufin, read-out: Activity
CYP1A1 [25] = target: T1, CYP1A1; test: Inhibition of recombinant CYP1A1 (unknown origin) assessed as residual enzyme activity using 7-ethoxyresorufin as substrate at 50 uM incubated for 15 mins by resorufin dye based spectrofluorimetry (reference value: 100%); format: ADME; settings: recombinant CYP1A1, probe 7-ethoxyresorufin, read-out: Activity
CYP1A1 [26] = target: T1, CYP1A1; test: Inhibition of recombinant CYP1A1 (unknown origin) assessed as residual enzyme activity using 7-ethoxyresorufin as substrate at 100 uM incubated for 15 mins by resorufin dye based spectrofluorimetry (reference value: 100%); format: ADME; settings: recombinant CYP1A1, probe 7-ethoxyresorufin, read-out: Activity
Cytochrome P450 1A1 [27] = target: T2, Cytochrome P450 1A1 (Homo sapiens, UniProt P04798); test: Inhibition of recombinant CYP1A1 (unknown origin) assessed as decrease in EROD activity using 7-ethoxyresorufin as substrate upto 100 uM incubated for 15 mins by resorufin dye based spectrofluorimetry; format: ADME; settings: recombinant enzyme, 0.25 h
T2 sequence (P04798 whole entry): T1 sequence (P04798 whole entry)

Cytochrome P450 1A1 [28] = target: T2, Cytochrome P450 1A1; test: Inhibition of recombinant CYP1A1 (unknown origin) assessed as decrease in EROD activity using 7-ethoxyresorufin as substrate incubated for 15 mins by resorufin dye based spectrofluorimetry; format: ADME

| SMILES | GI50 (MDA-MB-468 [1]) [µM] | TGI (MDA-MB-468 [1]) [µM] | CC50 (MDA-MB-468 [1]) [µM] | GI50 (MCF7 [2]) [µM] | TGI (MCF7 [2]) [µM] | CC50 (MCF7 [2]) [µM] | GI50 (MDA-MB-435 [3]) [µM] | LC50 (MDA-MB-435 [3]) [µM] | TGI (MDA-MB-435 [3]) [µM] | GI50 (NCI-H226 [4]) [µM] | LC50 (concentration killing 50% of cells) (NCI-H226 [4]) [µM] | TGI (NCI-H226 [4]) [µM] | growth at 0.1 µM (MDA-MB-468 [5]) [%] | growth at 1 µM (MDA-MB-468 [6]) [%] | growth at 10 µM (MDA-MB-468 [7]) [%] | growth at 100 µM (MDA-MB-468 [8]) [%] | growth at 0.1 µM (MCF7 [9]) [%] | growth at 1 µM (MCF7 [10]) [%] | growth at 10 µM (MCF7 [11]) [%] | growth at 100 µM (MCF7 [12]) [%] | other results |
| --- | --- | --- | --- | --- | --- | --- | --- | --- | --- | --- | --- | --- | --- | --- | --- | --- | --- | --- | --- | --- | --- |
| Cc1cc(C)n(C(=O)CNc2ccccc2Cl)n1 | 89.3 | > 100 | > 100 | 61.1 | > 100 | > 100 | > 100 | > 100 | > 100 | > 100 | > 100 | > 100 | 100 | 100 | 94.7 | 43.3 | 89.6 | 82.9 | 77.2 | 26.7 | growth at 0.1 µM (NCI-H226 [13]): 82.5%; growth at 1 µM (NCI-H226 [14]): 73.4%; growth at 10 µM (NCI-H226 [15]): 71.5%; growth at 100 µM (NCI-H226 [16]): 63.6%; growth at 0.1 µM (MDA-MB-435 [17]): 100%; growth at 1 µM (MDA-MB-435 [18]): 100%; growth at 10 µM (MDA-MB-435 [19]): 100%; growth at 100 µM (MDA-MB-435 [20]): 85.9%; activity at 0.25 h, 0.01 µM (CYP1A1 [21]): 101%; activity at 0.25 h, 0.1 µM (CYP1A1 [22]): 100%; activity at 0.25 h, 1 µM (CYP1A1 [23]): 99.9%; activity at 0.25 h, 10 µM (CYP1A1 [24]): 98.2%; activity at 0.25 h, 50 µM (CYP1A1 [25]): 104%; activity at 0.25 h, 100 µM (CYP1A1 [26]): 99.3%; inhibition (INH) (Cytochrome P450 1A1 [27]): Not Active |
| Cc1ccc(-c2cc3cc(F)ccc3[nH]2)cc1N | > 100 | > 100 | > 100 | > 100 | > 100 | > 100 | < 0.1 | > 100 | > 100 | > 100 | > 100 | > 100 | 100 | 100 | 99.8 | 96.8 | 100 | 73.1 | 70.9 | 67.1 | IC50 (Cytochrome P450 1A1 [28]): 0.13 µM; growth at 0.1 µM (NCI-H226 [13]): 100%; growth at 1 µM (NCI-H226 [14]): 100%; growth at 10 µM (NCI-H226 [15]): 98.9%; growth at 100 µM (NCI-H226 [16]): 90%; growth at 0.1 µM (MDA-MB-435 [17]): 47.8%; growth at 1 µM (MDA-MB-435 [18]): 40%; growth at 10 µM (MDA-MB-435 [19]): 30.6%; growth at 100 µM (MDA-MB-435 [20]): 23.1%; activity at 0.25 h, 0.01 µM (CYP1A1 [21]): 96.8%; activity at 0.25 h, 0.1 µM (CYP1A1 [22]): 52.6%; activity at 0.25 h, 1 µM (CYP1A1 [23]): 35.3%; activity at 0.25 h, 10 µM (CYP1A1 [24]): 12.8%; activity at 0.25 h, 50 µM (CYP1A1 [25]): 10.6%; activity at 0.25 h, 100 µM (CYP1A1 [26]): 8.54% |
